Experimental data from the supplement of paper PMC10307832.

Key:
Assay in all cases: relative viability (nuclei count vs DMSO), 5 days (fraction); higher = more cells survive
Dactolisib + Palbociclib = compound: Cn1c(=O)n(-c2ccc(C(C)(C)C#N)cc2)c2c3cc(-c4cnc5ccccc5c4)ccc3ncc21 [Dactolisib] + CC(=O)c1c(C)c2cnc(Nc3ccc(N4CCNCC4)cn3)nc2n(C2CCCC2)c1=O [Palbociclib] (partner 0.5 µM)
Method in brief: (§1)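 Lung cancer cell lines in 1536-well plates got either a single drug or a fixed anchor-drug dose together with five library-drug doses (not always all listed) in √10 steps, by pin tool, on the day after seeding. Nuclei were counted after 5 days, and relative viability is the treated-to-vehicle ratio of nuclei counts. Values are medians of duplicate plates.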

Dactolisib + Phenformin = compound: Cn1c(=O)n(-c2ccc(C(C)(C)C#N)cc2)c2c3cc(-c4cnc5ccccc5c4)ccc3ncc21 [Dactolisib] + N=C(N)NC(=N)NCCc1ccccc1 [Phenformin] (partner 250 µM)
Method in brief: as §1

AZ505 + Lapatinib = compound: C1CCC(CC1)N(CCNCCC2=C3C(=C(C=C2)O)NC(=O)CO3)C(=O)CCNCCC4=CC(=C(C=C4)Cl)Cl [AZ505] + CS(=O)(=O)CCNCc1ccc(-c2ccc3ncnc(Nc4ccc(OCc5cccc(F)c5)c(Cl)c4)c3c2)o1 [Lapatinib] (partner 2 µM)
Method in brief: as §1

Dactolisib + Luminespib = compound: Cn1c(=O)n(-c2ccc(C(C)(C)C#N)cc2)c2c3cc(-c4cnc5ccccc5c4)ccc3ncc21 [Dactolisib] + CCNC(=O)c1noc(-c2cc(C(C)C)c(O)cc2O)c1-c1ccc(CN2CCOCC2)cc1 [Luminespib] (partner 0.01 µM)
Method in brief: as §1

Cell Line	relative viability (Dactolisib + Palbociclib; first compound 0.002 µM)	relative viability (Dactolisib + Palbociclib; first compound 0.006325 µM)	relative viability (Dactolisib + Palbociclib; first compound 0.02 µM)	relative viability (Dactolisib + Palbociclib; first compound 0.06325 µM)	relative viability (Dactolisib + Palbociclib; first compound 0.2 µM)	relative viability (Dactolisib + Phenformin; first compound 0.002 µM)	relative viability (Dactolisib + Phenformin; first compound 0.006325 µM)	relative viability (Dactolisib + Phenformin; first compound 0.02 µM)	relative viability (Dactolisib + Phenformin; first compound 0.06325 µM)	relative viability (Dactolisib + Phenformin; first compound 0.2 µM)	relative viability (AZ505 + Lapatinib; first compound 0.08 µM)	relative viability (AZ505 + Lapatinib; first compound 0.253 µM)	relative viability (AZ505 + Lapatinib; first compound 0.8 µM)	relative viability (AZ505 + Lapatinib; first compound 2.53 µM)	relative viability (AZ505 + Lapatinib; first compound 8 µM)	relative viability (Dactolisib + Luminespib; first compound 0.002 µM)	relative viability (Dactolisib + Luminespib; first compound 0.006325 µM)	relative viability (Dactolisib + Luminespib; first compound 0.02 µM)	relative viability (Dactolisib + Luminespib; first compound 0.06325 µM)	relative viability (Dactolisib + Luminespib; first compound 0.2 µM)
NCI-H1755	0.482	0.423	0.42	0.388	0.38	0.647	0.617	0.612	0.549	0.476	1.02	0.99	1.09	1.09	1.03	0.298	0.399	0.418	0.417	0.359
NCI-H661	0.415	0.379	0.368	0.342	0.332	0.254	0.278	0.292	0.216	0.265	0.468	0.502	0.447	0.477	0.499	0.929	0.99	0.866	0.391	0.496
HARA	0.304	0.233	0.301	0.233	0.188	0.467	0.441	0.51	0.405	0.211	0.636	0.501	0.651	0.802	0.681	0.829	0.462	0.62	0.314	0.121
NCI-H23	0.464	0.383	0.37	0.189	0.191	0.807	0.795	0.736	0.359	0.316	1.02		0.984	1.23	1.15	0.205	0.208	0.222	0.191	0.203
LCLC-97TM1	0.217	0.252	0.194	0.161	0.0966	0.452	0.444	0.42	0.317	0.179	1.03	0.948	1.28	1.06	1.3	0.753	0.754	0.661	0.46	0.213
EPLC-272H	0.331	0.299	0.341	0.317	0.287	0.351	0.25	0.268	0.228	0.259	0.785	0.817	0.867	0.871	0.956	0.691	0.262	0.264	0.203	0.23
NCI-H1915	0.609	0.496	0.557	0.317	0.262	0.376	0.387	0.391	0.344	0.327	1.01	1.07	0.985	1.05	1.04	0.78	0.823	0.692	0.516	0.442
NCI-H2405	0.471	0.542	0.449	0.314	0.291	0.403	0.379	0.374	0.269	0.256	0.741	0.766	0.773	0.822	0.893	0.665	0.689	0.755	0.393	0.272
NCI-H322M	0.487	0.476	0.415	0.387	0.415	0.822	0.745	0.713	0.617	0.485	0.535	0.539	0.611	0.475	0.576	0.36	0.741	0.612	0.4	0.323
NCI-H2170	0.379	0.385	0.316	0.205	0.167	0.454	0.433	0.48	0.434	0.284	0.269	0.278	0.24	0.263	0.275	0.512	0.805	0.722	0.435	0.195
NCI-H1395	0.558	0.589	0.556	0.452	0.419	0.445	0.485	0.453	0.377	0.373	0.949	0.952	0.911	1.08	0.992	0.544	0.681	0.678	0.434	0.43
NCI-H358	0.141	0.146	0.134	0.112	0.096	0.317	0.302	0.286	0.221	0.111	0.408	0.474	0.416	0.371	0.435	0.399	0.289	0.273	0.203	0.111
NCI-H838	0.2	0.186	0.151	0.142	0.117	0.628	0.423	0.267	0.201	0.175	0.941	0.8	0.893	0.894	0.903	0.285	0.377	0.317	0.174	0.159
CAL-12T	0.526	0.396	0.256	0.172	0.133	0.672	0.567	0.508	0.236	0.192	0.637	0.534	0.537	0.625	0.728	0.477	0.128	0.117	0.142	0.12
